Values joined by “and” are separate entries in the source; they are usually repeats but may differ in a detail not shown here. Equal values may be shown once.
Legend:
DHS3^WT = test: DHS enzyme assay, recombinant DHS3^WT; type: biochemical, Arabidopsis thaliana; settings: read-out: IC50 of effector molecule on DHS3^WT
Procedure: (§1) To generate DHS proteins with individual sota mutations via site-directed mutagenesis, these pET28a plasmid templates were diluted by 500-fold, mixed with 0.04 U/μL Phusion DNA polymerase (Thermo Scientific), 0.2 mM deoxynucleoside triphosphates (dNTPs), 1× Phusion reaction buffer (Thermo Scientific), and 0.5 μM forward and reverse mutagenesis primers (Table 10). The PCR reaction was run using the following protocol: 98° C. for 30 s followed by 20 cycles of 10 s at 98° C., 20 s at 70° C., 4.5 min at 72° C. with a final extension at 72° C. for 10 min. The PCR products were purified using a QIAquick Gel Extraction Kit (QIAGEN), treated with FastDigest DpnI (Thermo Scientific) to digest methylated plasmid template DNA for 20 min at 37° C., and transformed into E. coli cells. The mutagenized pET28a plasmids were sequenced to confirm that no errors were introduced during the mutagenesis process.
(§2) The DHS enzyme assays were conducted using the colorimetric method that we recently described (9). Briefly, the enzyme solution (7.7 μl) containing 50 mM Hepes (pH 7.4) was preincubated with an effector molecule(s) at room temperature for 15 min. For assays using recombinant protein and enzyme fractions isolated from plant leaves, 0.01 to 0.1 μg and approximately 50 μg of proteins were used, respectively. […]

all DHS^WT isoforms = test: DHS enzyme assay, summary over all DHS^WT isoforms; type: biochemical, Arabidopsis thaliana; settings: for inhibition of all DHS^WT isoforms: FIG. 2D
Procedure: as §1, with “To generate recombinant DHS proteins the pET28a vectors carrying the A. thaliana DHS1 (AtDHS1), AtDHS2, or AtDHS3 WT sequence without the predicted plastid transit peptide (amino acid residues; 49-525, 34-507, and 52-527, respectively) were expressed in E. coli Rosetta-2 cells and purified using Ni-affinity chromatography, exactly as was conducted previously (9). To” for “To”
The DHS enzyme assays were conducted using the colorimetric method that we recently described (9). Briefly, the enzyme solution (7.7 μl) containing 50 mM Hepes (pH 7.4) was preincubated with an effector molecule(s) at room temperature for 15 min. For assays using recombinant protein and enzyme fractions isolated from plant leaves, 0.01 to 0.1 μg and approximately 50 μg of proteins were used, respectively. After adding 0.5 μl of 0.1 M dithiothreitol, the samples were further incubated at room temperature for 15 min. […] The absorbance of the pink supernatant was read at 549 nm with the microplate reader (Infinite 200 PRO, TECAN) to calculate DAHP production with the molar extinction coefficient at 549 nm (ε=549 nm) of 4.5×10^4 M^−1 cm^−1. […]

DHS3^G1 = test: DHS enzyme assay, recombinant DHS3^G1; type: biochemical, Arabidopsis thaliana
Procedure: as §1
(§3) The DHS enzyme assays were conducted using the colorimetric method that we recently described (9). Briefly, the enzyme solution (7.7 μl) containing 50 mM Hepes (pH 7.4) was preincubated with an effector molecule(s) at room temperature for 15 min. For assays using recombinant protein and enzyme fractions isolated from plant leaves, 0.01 to 0.1 μg and approximately 50 μg of proteins were used, respectively. After adding 0.5 μl of 0.1 M dithiothreitol, the samples were further incubated at room temperature for 15 min. During these incubations, the substrate solution containing 50 mM Hepes (pH 7.4), 2 mM MnCl2, 4 mM E4P, and 4 mM PEP at final concentration was preheated at 37° C. The enzyme reaction was started by adding 6.8 μl of the substrate solution, then incubated at 37° C. for 30 min, and terminated by adding 30 μl of 0.6 M trichloroacetic acid. After a brief centrifugation, 5 μl of 200 mM NaIO4 (sodium meta-periodate) in 9 N H3PO4 was added to oxidize the enzymatic product and to incubate at 25° C. for 20 min. To stop the oxidation reaction, 20 μl of 0.75 M NaAsO2 (sodium arsenite), which was dissolved in 0.5 M Na2SO4 and 0.05 M H2SO4, was added and immediately mixed. […]

DHS3^H1 = test: DHS enzyme assay, recombinant DHS3^H1; type: biochemical, Arabidopsis thaliana
Procedure: as §1, §3

[1] = target: T1, Arabidopsis thaliana DHS2 (AtDHS2), wild type (DHS2^WT), SEQ ID NO:2 (Arabidopsis thaliana, UniProt Q00218); test: DHS enzyme assay with effector, Arabidopsis DHS2 WT; type: biochemical; settings: 4 mM E4P, 4 mM PEP, pH 7.4, 37° C.
T1 construct: without the predicted plastid transit peptide (amino acid residues; 49-525, 34-507, and 52-527, respectively); made in house; host or cells: E. coli Rosetta-2
T1 sequence (Q00218 34-507): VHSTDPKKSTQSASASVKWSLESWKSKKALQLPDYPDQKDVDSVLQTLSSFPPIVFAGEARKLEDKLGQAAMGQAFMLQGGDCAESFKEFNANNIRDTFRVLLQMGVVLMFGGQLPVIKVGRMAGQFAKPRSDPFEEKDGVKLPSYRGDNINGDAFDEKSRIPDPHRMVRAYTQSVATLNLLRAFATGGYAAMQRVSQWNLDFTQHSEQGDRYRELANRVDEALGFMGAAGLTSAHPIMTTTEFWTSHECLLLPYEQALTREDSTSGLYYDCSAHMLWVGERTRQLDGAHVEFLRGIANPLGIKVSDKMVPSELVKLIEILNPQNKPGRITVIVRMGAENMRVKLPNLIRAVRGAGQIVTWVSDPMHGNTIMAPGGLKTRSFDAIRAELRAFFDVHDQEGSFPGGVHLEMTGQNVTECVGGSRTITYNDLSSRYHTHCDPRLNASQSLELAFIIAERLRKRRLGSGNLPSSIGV
Procedure: as §1, §2

Question: `O=C(O)Cc1cc(O)ccc1O` [HGA, homogentisate] was tested. Which IC50 (DHS3^WT) did it give?
Answer: 102 µM

Question: What about the “inhibition of all DHS^WT isoforms” value (all DHS^WT isoforms) of the same compound?
Answer: effectively inhibited

Question: And the IC50 (all DHS^WT isoforms; range over the three isoforms)?
Answer: 75 to 250 µM

Question: And the IC50 (DHS3^G1; read-out: IC50 of effector molecule on DHS3^G1)?
Answer: 375 µM

Question: And the IC50 (DHS3^H1; read-out: IC50 of effector molecule on DHS3^H1)?
Answer: 405 µM

Question: `O=C(O)C(=O)Cc1ccc(O)cc1` [HPP, 4-Hydroxyphenylpyruvate] was tested. Which IC50 [1] did it give?
Answer: 48.4 µM

Question: What about the IC50 (DHS3^WT) of the same compound?
Answer: 516 µM

Question: What about the “inhibition of all DHS^WT isoforms” value (all DHS^WT isoforms) of the same compound?
Answer: effectively inhibited

Question: How did the IC50 [1] turn out when `O=C(O)C(=O)Cc1c[nH]c2ccccc12` [IPA, indole-3-pyruvate] was run?
Answer: 58 µM and 58.3 µM

Question: Which results are given for `N[C@@H](Cc1c[nH]c2ccccc12)C(=O)O` [Trp, tryptophan]?
Answer: IC50 of effector molecule on DHS3^G1 (DHS3^G1): Not inhibited; IC50 of effector molecule on DHS3^H1 (DHS3^H1): Not inhibited

From patent publication US20250043299A1, “POINT MUTATIONS THAT BOOST AROMATIC AMINO ACID PRODUCTION AND CO2 ASSIMILATION IN PLANTS” (Wisconsin Alumni Research Foundation, priority 2021, published 2025)
